Entries after “also recorded” stand apart in the source; their conditions may differ.
Target: T1, GluD2-A654T-D535E (Rattus norvegicus, UniProt Q63226, A654T/D535E)
T1 construct: expressed in transfected cells; host or cells: Xenopus laevis oocytes injected with cRNA
T1 sequence (Q63226 24-1007 D535E/A654T): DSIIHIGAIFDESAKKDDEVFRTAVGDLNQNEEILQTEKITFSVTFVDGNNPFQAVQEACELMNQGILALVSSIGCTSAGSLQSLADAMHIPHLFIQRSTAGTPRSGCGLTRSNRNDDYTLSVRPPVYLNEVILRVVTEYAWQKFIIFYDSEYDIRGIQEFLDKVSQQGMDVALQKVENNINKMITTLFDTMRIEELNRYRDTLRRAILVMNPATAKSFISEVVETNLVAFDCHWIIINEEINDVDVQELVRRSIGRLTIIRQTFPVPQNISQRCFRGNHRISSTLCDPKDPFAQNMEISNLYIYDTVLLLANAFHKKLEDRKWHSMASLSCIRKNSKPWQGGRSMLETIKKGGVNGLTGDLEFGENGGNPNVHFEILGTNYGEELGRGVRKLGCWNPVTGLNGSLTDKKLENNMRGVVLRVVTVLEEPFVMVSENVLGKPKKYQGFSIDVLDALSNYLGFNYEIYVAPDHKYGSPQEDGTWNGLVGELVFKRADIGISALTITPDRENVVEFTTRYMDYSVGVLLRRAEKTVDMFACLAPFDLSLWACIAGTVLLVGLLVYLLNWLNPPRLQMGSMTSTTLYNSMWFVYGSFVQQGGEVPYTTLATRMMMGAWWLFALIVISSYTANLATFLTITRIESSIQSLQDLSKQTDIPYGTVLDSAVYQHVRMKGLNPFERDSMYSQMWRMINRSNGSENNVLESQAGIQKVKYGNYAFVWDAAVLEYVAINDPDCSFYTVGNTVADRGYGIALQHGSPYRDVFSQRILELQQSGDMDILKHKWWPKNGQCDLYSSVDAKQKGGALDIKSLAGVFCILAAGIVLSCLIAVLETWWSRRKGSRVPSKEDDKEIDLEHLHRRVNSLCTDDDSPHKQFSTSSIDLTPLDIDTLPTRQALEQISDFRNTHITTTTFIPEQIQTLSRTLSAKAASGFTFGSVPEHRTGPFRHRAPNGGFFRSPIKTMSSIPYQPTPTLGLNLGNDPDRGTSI
Assay: TEVC of constitutive current, Xenopus oocytes expressing GluD2-A654T-D535E
Assay type: cell-based
Settings: for Effect on constitutive current, in words: compared to GluD2-A654T
From the text: Human GluD1 (GRID1) and rat GluD2 (Grid2) cDNAs were introduced into the pGEM-HE and pCI-neo vectors. GRID1 (NM_017551.3) gene fragments were synthesized by Integrated DNA Technologies and cloned into empty vectors using InFusion cloning (Clontech). […] However, rat and human GluD2-encoding cDNA are identical in the M3 domain in which many of the variants we studied reside (see Supplementary Fig. S1). The full open reading frame for both constructs were verified by Sanger sequencing (Eurofins) and the full plasmid sequence was verified by whole plasmid sequencing (plasmidsaurus). Variant cDNA changes identified in patients were introduced into the cloned human GRID1 (NM_017551.3) in pGEM-HE and cloned rat Grid2 cDNA sequence (NM_024379.1) in pGEM-HE vector using Quikchange Lightning (Agilent) protocol according to the manufacturer’s instructions. Vectors were linearized and cRNA was synthesized using T7 RNA mMESSAGE kit (Invitrogen).
Xenopus laevis oocytes were prepared from ovaries purchased from Xenopus 1 (Dexter, MI) as previously described, [68] and incubated at 16°C in culture Barth’s solution (in mM) 88 NaCl, 2.4 NaHCO3, 1 KCl, 0.33 Ca(NO3)2, 0.41 CaCl2, 0.82 MgSO4, 10 HEPES, pH 7.4 with NaOH, supplemented with 1 U/ml penicillin and 1 μg/ml streptomycin. Oocytes were injected with approximately 5–40 ng RNA per oocyte and then incubated at 16–19°C for 1–3 days in culture Barth’s solution. […] Two-electrode voltage clamp (TEVC) recordings were performed as previously described. Unless otherwise specified, extracellular solution contained (in mM) 90 NaCl, 3 KCl, 0.5 BaCl2, 0.01 EDTA, 10 HEPES, and was brought to pH 7.4 with NaOH. The oocytes were placed in a dual track recording chamber and gravity perfused with solution exchange controlled via a computer-driven 8-valve positioner (Digital MVP Valve). […] Recording electrodes were filled with 0.3 M KCl, and currents were recorded with membrane voltage held at −40 mV. To establish constitutive activity of recombinant receptors when compared to wild type receptors, we used the oocyte recording solution described above, but with 90 mM N-methyl-D-glucamine (NMDG) chloride replacing 90 mM NaCl. […] For Ca^2+ concentration-response curves, choline chloride was used to maintain equimolar concentrations of Cl^− ions in the extracellular solution across the changing concentrations of calcium chloride. All compounds used in this study for concentration-response oocyte recordings were dissolved in deionized water as 50–100 mM stock solutions. In some rescue pharmacology experiments, we substituted 1 mM CaCl2 for 0.5 mM BaCl2 to evaluate Ca^2+-dependent control of receptor responses.
Data are represented as mean ± SEM. Statistical significance of logEC50 or logIC50 was determined by one-way analysis of variance (ANOVA) with a Dunnett’s multiple comparisons post-hoc test with a significance threshold of P < 0.05. Sample sizes were adjusted so that the power to detect an effect size of 1 was > 0.9 (GPower 3.1). All error bars on figures represent the SEM.

| Compound | Effect on constitutive current, in words | EC50 (modulation of constitutive current, inhibited by Ca2+ (not potentiated), read-out: Ca2+ EC50 [95% CI]) | Ca2+ % Max (NMDG+ − Na+) Mean ± SEM (normalized to NMDG+ − Na+ difference current) | D-serine % Max (NMDG+ − Na+) Mean ± SEM (percent of constitutive leak current (NMDG+/Na+ difference current)) |
| --- | --- | --- | --- | --- |
| [Ca+2] [Ca^2+] | weakly inhibited; also recorded: complete loss of Ca^2+ potentiation | 5.6 mM | 70 ± 2.0 (15) % | – |
| N[C@H](CO)C(=O)O [D-serine] | modestly reduced D-serine potency | – | – | 60 ± 2.2 (15) % |

— PMC10840383, “Clinical features, functional consequences, and rescue pharmacology of missense GRID1 and GRID2 human variants” (Human Molecular Genetics, 2023)
